Experimental findings from US20260256922A1, “PRODRUGS USEFUL FOR REDUCING ANTHRACYCLINE CARDIOTOXICITY” (WAKE FOREST UNIVERSITY HEALTH SCIENCES, priority 2022, published 2026) are described below.

Each structure is given as a SMILES string.

Data set [1] in a line: Methylene blue assay of H2S release. Conditions: for H2S released: c1 40 μM. In kind it is physicochemical. As for the experimental part: FIG. 3. Methylene blue assay depicting the time-dependent release of H2S from c1 (40 μM) while in the presence of H2O2 (40 μM) and carbonic anhydrase (CA). Plotted as the mean±SEM from three independent experiments. Data were collected in the presence (circles) or absence (squares) of H2O2.
H2S release from c1. We confirmed the time-dependent liberation of H2S using a methylene blue assay^46 and measuring the resulting absorbance at 670 nm after c1 exposure to H2O2 (FIG. 3, circle). Using a calibration curve generated with Na2S, we determined that c1 (40 μM) was able to release more than 16 μM H2S while in the presence of both H2O2 ([…]) and carbonic anhydrase (CA). […] As a control, the same assay was also run in the absence of CA (data not shown). Under these conditions, c1 exposure to H2O2 yielded small amounts of H2S ([…]). This is presumably due to isocyanate formation and the direct release of H2S from the breakdown of 4.
With carbonic anhydrase: Six separate vials were each filled with 150 μL of freshly degassed PBS (pH 7.4) containing Zn(OAc)2 (2 mM), carbonic anhydrase (0.1 mg/mL), and DOX (80 μM). Next, 150 μL of Na2S stock solution in freshly degassed PBS (pH 7.4), and at differing concentrations (6.25, 12.5, 25.0, 50.0, 100 and 200.0 μM), was added to each vial to give a final volume of 300 μL and a final concentration of 3.125, 6.25, 12.5, 25.0, 50.0, and 100.0 µM Na2S. […] The MB solution was transferred to a 1.0 mL UV cuvette and the absorbance at 670 nm was recorded.
Without carbonic anhydrase: Six separate vials were each filled with 150 μL of freshly degassed PBS (pH 7.4) containing Zn(OAc)2 (2 mM) and DOX (80 μM). […] The MB solution was transferred to a 1.0 mL UV cuvette and the absorbance at 670 nm was recorded. […]
With carbonic anhydrase: To a 20 mL scintillation vial containing 9770 μL of freshly degassed PBS (pH 7.4) was added stock solutions of carbonic anhydrase (50 μL), H2O2 (40 μL), Zn(OAc)2 (100 μL), and c1 (or c2) (40 μL). […] After reacting for 30 min in the dark, absorbance measurements were recorded at 670 nm. […]

A further data set deals with caspase-3. The data set is described as follows: Caspase-3 cleavage immunoblot in H9C2 cells. Conditions: 24 h. As for the experimental part:
FIG. 6. […] H9C2 cells in culture were treated for 24 hr with c1, c2, DOX or vehicle (DMSO), then harvested into lysis buffer and immunoblotted for caspase-3. Data analyzed by ImageJ were used to assess the percent of the two bands present as the lower band.
We next evaluated apoptotic signaling through caspase-3 cleavage at 24 h to compare the experimental compounds.
To evaluate levels of caspase cleavage (using an antibody recognizing both cleaved and uncleaved, Cell Signaling, cat #9662), Nrf2 (antibody from Thermo Fisher, cat #PA5-27882), and HO-1 (antibody from Proteintech, cat #10701-1-AP), H9C2 cells were plated at a density of 450,000 per well in a 24-well plate, then treated 24 h later with 10 or 20 µM DOX and incubated another 24 h before harvesting. For some samples, 100 mM hydroxocobalamin (HO-Cbl) was added 5 min before drug treatment. Cells were harvested by removing media (and recovering any non-adherent cells by centrifugation for 5 min at 10,600×g, discarding the supernatant), and combining that with the 120 μL of lysis buffer added to each well. Lysis buffer [50 mM Tris-HCl at pH 8.0, with 100 mM NaCl, 100 µM diethylene triamine pentaacetic acid (DTPA), 20 mM β-glycerophosphate, 0.1% SDS, 0.5% Na Desoxycholate, and 0.5% Triton-X-100] was prepared by freshly adding protease and phosphatase inhibitors before use (1 mM PMSF, 10 μg/mL aprotinin, 1 mM Na3VO4, 10 mM NaF and 10 μg/mL leupeptin). Samples were further incubated on ice for 30 min, then centrifuged at high speed (20,800×g for 10 min) to remove cell debris, and supernatants were mixed with 5×SDS protein sample buffer for Western blot analysis following resolution of 40 μg per sample on 10% SDS-polyacrylamide gels. Protein concentrations of supernatants were determined using a BCA assay (Pierce). Antibodies were used at dilutions of 1:1000 (for HO-1 and caspase-3) or 1:3000 (for Nrf2).
A general note: Immunoblotting shows a protein as a band on a membrane.

Regarding `COc1cccc2c1C(=O)c1c(O)c3c(c(O)c1C2=O)C[C@@](O)(C(=O)CO)C[C@@H]3O[C@H]1C[C@H](NC(=S)OCc2ccc(B3OC(C)(C)C(C)(C)O3)cc2)[C@H](O)[C@H](C)O1` [c1], the “share of H2S production via COS hydrolysis facilitated by CA” value in data set [1] is ~ 70%. Moreover, the H2S released result in data set [1] (absence of peroxides) is “negligible amounts of H2S”; in data set [1] (in presence of H2O2 and carbonic anhydrase), “more than 16 μM”. Moreover, in the data set on caspase-3 (H9C2, 10 μM drug, 100 mM hydroxocobalamin added 5 min prior), the “caspase-3 cleavage with H2S scavenger hydroxocobalamin” value is on record as “much more cleavage of caspase-3 than in its absence”. Further, the caspase-3 cleavage entry in the data set on caspase-3 (H9C2, 10 or 20 μM) was “neither c1 nor c2 at either 10 or 20 UM caused notable caspase-3 cleavage”.
